Assay results taken from patent publication US20260274853A1, “BIFUNCTIONAL COMPOUNDS CONTAINING PYRIMIDINE DERIVATIVES FOR DEGRADING CYCLIN-DEPENDENT KINASE 2 VIA UBIQUITIN PROTEASOME PATHWAY” (NIKANG THERAPEUTICS, INC., priority 2022, published 2026).

Assays:
CDK2 [1] = target: T1, CDK2 (Homo sapiens, UniProt P24941); test: Inhibition of CDK2: phospho-Rb (S807/811) HTRF measurement in OVCAR3 cells; type: cell-based; conditions: 24 h compound treatment, read-out: pRb (nM), IC50 in pRB(S807/811) assay
T1 construct: High-Throughput Measurement of Cellular Endogenous CDK2; endogenous in cells; host or cells: OVCAR3

CDK2 [2] = target: T1, CDK2; test: CDK2 HTRF assay: cellular endogenous CDK2 level in OVCAR3 cells; type: cell-based; conditions: 24 hours compound treatment; for DC50: read-out: DC50 (half maximal degradation concentration of CDK2)
Method: Effects of compounds on cellular CDK2 level can be monitored by a high-throughput HTRF assay or traditional Western Blot assay.
To determine half maximal degradation concentration (DC50) values of compounds, cellular CDK2 level was measured in 96-well format using HTRF total CDK2 cellular kit (Cat #64CDK2TPEG) from Cisbio.
On Day 1, OVCAR3 cells were seeded into 96-well tissue-culture treated plates at 20,000 cells/well in 200 μL and incubated overnight at 37° C. in CO2 atmosphere. On Day 2 cells were treated with compounds at concentration ranging from 0.3 to 10,000 nM using HP D300 digital dispenser. 24 hours after compound treatment, cell culture media was removed by flicking the plate and tapping the plate against clean paper towel. Immediately 30 μL 1× lysis buffer was supplemented from the kit and the plate was incubated at room temperature on shaker for 30 min. After homogenization by pipetting up and down, 8 μL cell lysate from 96-well cell culture plate was transferred to 384-well small volume white detection plate. 2 μL premixed detection solution was added and the plate was covered with sealer. To prepare the detection solution, d2 conjugated-CDK2 antibody and Eu-cryptate conjugated CDK2 antibody were diluted into detection buffer following manufacturer's instruction. Detection plates were incubated overnight at room temperature and read on ClarioStar (BMG Labtech) in TR-FRET mode (665 nM and 620 nM). The TR-FRET ratio (665 nM/620 nM) was plotted against the compound concentration and normalized to DMSO controls. Half maximal degradation concentration (DC50) values were calculated with a four-parameter logistic fit using GraphPad Prism (version 8; La Jolla, CA).
In the table below, A indicates a DC50 of less than 0.1 μM; B indicates a DC50 of greater than or equal to 0.1 μM but less than 0.5 μM; C indicates a DC50 of greater than or equal to 0.5 μM but less than 1 μM; and D indicates a DC50 of greater than or equal to 1 μM but less than 10 μM.

Compound | IC50 (CDK2 [1]) | DC50 (CDK2 [2]) | DC50 (half maximal degradation concentration of CDK2) (CDK2 [2])
Cc1ncsc1-c1ccc([C@H](C)NC(=O)[C@@H]2C[C@@H](O)CN2C(=O)[C@@H](NC(=O)CC2CCN(Cc3cccc(S(=O)(=O)N4CCC(Nc5ncc(C(F)(F)F)c(-c6cnn(CC(F)(F)F)c6)n5)CC4)c3)CC2)C(C)(C)C)cc1 [Example 62, (2S,4R)-1-((S)-3,3-dimethyl-2-(2-(1-(3-((4-((4-(1-(2,2,2-trifluoroethyl)-1H-pyrazol-4-yl)-5-(trifluoromethyl)-pyrimidin-2-yl)amino)piperidin-1-yl)-sulfonyl)benzyl)piperidin-4-yl)-acetamido)butanoyl)-4-hydroxy-N-((S)-1-(4-(4-methylthiazol-5-yl)phenyl)-ethyl)pyrrolidine-2-carboxamide] | < 100 nM | < 100 nM | –
CC(Cc1cccc(S(=O)(=O)N2CCC(Nc3ncc(C(F)(F)F)c(-c4cnn(CC(F)(F)F)c4)n3)CC2)c1)N1CCC(c2ccc3c(N4CCC(=O)NC4=O)nn(C)c3c2)CC1 (stereo not drawn) [Example 93, 1-(1-methyl-6-(1-(1-(3-((4-((4-(1-(2,2,2-trifluoroethyl)-1H-pyrazol-4-yl)-5-(trifluoromethyl)pyrimidin-2-yl)amino)-piperidin-1-yl)sulfonyl)-phenyl)propan-2-yl)piperidin-4-yl)-1H-indazol-3-yl)dihydropyrimidine-2,4(1H,3H)-dione] | < 100 nM | < 100 nM | –
O=C1CCC(N2C(=O)c3cc(F)c(N4CC5(CN(Cc6cccc(S(=O)(=O)N7CCC(Nc8ncc(C(F)(F)F)c(-c9cnn(CC(F)(F)F)c9)n8)CC7)c6)C5)C4)cc3C2=O)C(=O)N1 (stereo not drawn) [Example 31, 2-(2,6-dioxopiperidin-3-yl)-5-fluoro-6-(6-(3-((4-((4-(1-(2,2,2-trifluoroethyl)-1H-pyrazol-4-yl)-5-(trifluoromethyl)-pyrimidin-2-yl)amino)piperidin-1-yl)-sulfonyl)benzyl)-2,6-diazaspiro[3.3]-heptan-2-yl)isoindoline-1,3-dione] | < 100 nM | < 100 nM | –
O=C1CCN(c2ccc(N3CCN(Cc4cccc(S(=O)(=O)N5CCC(Nc6ncc(C(F)(F)F)c(-c7cnn(CC(F)(F)F)c7)n6)CC5)c4)CC3)cc2)C(=O)N1 [Example 25, 1-(4-(4-(3-((4-((4-(1-(2,2,2-trifluoro-ethyl)-1H-pyrazol-4-yl)-5-(trifluoro-methyl)pyrimidin-2-yl)amino)-piperidin-1-yl)sulfonyl)benzyl)piperazin-1-yl)-phenyl)dihydro-pyrimidine-2,4(1H,3H)-dione] | < 100 nM | < 100 nM | –
Cn1nc(N2CCC(=O)NC2=O)c2ccc(C3CCN(C(c4cccc(S(=O)(=O)N5CCC(Nc6ncc(C(F)(F)F)c(-c7cnn(CC(F)(F)F)c7)n6)CC5)c4)C(F)F)CC3)cc21 (stereo not drawn) [Example 84, 1-(6-(1-(2,2-difluoro-1-(3-((4-((4-(1-(2,2,2-trifluoroethyl)-1H-pyrazol-4-yl)-5-(trifluoromethyl)pyrimidin-2-yl)amino)-piperidin-1-yl)sulfonyl)-phenyl)ethyl)-piperidin-4-yl)-1-methyl-1H-indazol-3-yl)dihydropyrimidine-2,4(1H,3H)-dione] | < 100 nM | < 100 nM | –
Cn1c(S(=O)(=O)N2CCC(Nc3ncc(C(F)(F)F)c(-c4cnn(CC(F)(F)F)c4)n3)CC2)cnc1CN1CCN(c2ccc(C3CCC(=O)NC3=O)cc2F)CC1 (stereo not drawn) [Example 20, 3-(3-fluoro-4-(4-((1-methyl-5-((4-((4-(1-(2,2,2-trifluoroethyl)-1H-pyrazol-4-yl)-5-(trifluoromethyl)pyrimidin-2-yl)amino)-piperidin-1-yl)sulfonyl)-1H-imidazol-2-yl)methyl)piperazin-1-yl)phenyl)-piperidine-2,6-dione] | < 100 nM | < 100 nM | –
Cn1nc(N2CCC(=O)NC2=O)c2ccc(C3CCN(Cc4cccc(S(=O)(=O)N5CC[C@H](Nc6ncc(C(F)(F)F)c(-c7cnn(CC(C)(C)O)c7)n6)[C@H](F)C5)c4)CC3)cc21 (racemic) [Example 70, Rac-1-(6-(1-(3-(((3R,4S)-3-fluoro-4-((4-(1-(2-hydroxy-2-methylpropyl)-1H-pyrazol-4-yl)-5-(trifluoromethyl)-pyrimidin-2-yl)amino)piperidin-1-yl)-sulfonyl)benzyl)piperidin-4-yl)-1-methyl-1H-indazol-3-yl)dihydro-pyrimidine-2,4(1H,3H)-dione] | < 100 nM | < 100 nM | –
Cn1c(S(=O)(=O)N2CCC(Nc3ncc(C(F)(F)F)c(-c4cnn(CC(F)(F)F)c4)n3)CC2)cnc1CN1CCN(c2cc3c(cc2F)C(=O)N(C2CCC(=O)NC2=O)C3=O)CC1 (stereo not drawn) [Example 30, 2-(2,6-dioxopiperidin-3-yl)-5-fluoro-6-(4-((1-methyl-5-((4-((4-(1-(2,2,2-trifluoroethyl)-1H-pyrazol-4-yl)-5-(trifluoromethyl)pyrimidin-2-yl)amino)-piperidin-1-yl)sulfonyl)-1H-imidazol-2-yl)methyl)piperazin-1-yl)isoindoline-1,3-dione] | 100 to 500 nM | < 100 nM | –
Cn1nc(N2CCC(=O)NC2=O)c2ccc(C3CCN(CC(C)(C)c4cccc(S(=O)(=O)N5CCC(Nc6ncc(C(F)(F)F)c(-c7cnn(CC(F)(F)F)c7)n6)CC5)c4)CC3)cc21 [Example 90, 1-(1-methyl-6-(1-(2-methyl-2-(3-((4-((4-(1-(2,2,2-trifluoroethyl)-1H-pyrazol-4-yl)-5-(trifluoromethyl)-pyrimidin-2-yl)-amino)piperidin-1-yl)sulfonyl)phenyl)-propyl)piperidin-4-yl)-1H-indazol-3-yl)-dihydro-pyrimidine-2,4(1H,3H)-dione] | < 100 nM | < 100 nM | –
O=C1CCC(N2C(=O)c3cc(F)c(N4CCN(Cc5cccc(S(=O)(=O)N6CCC(Nc7ncc(Cl)c(-c8cnn(CC(F)(F)F)c8)n7)CC6)c5)CC4)cc3C2=O)C(=O)N1 (stereo not drawn) [Example 9, 5-(4-(3-((4-((5-chloro-4-(1-(2,2,2-trifluoroethyl)-1H-pyrazol-4-yl)-pyrimidin-2-yl)amino)piperidin-1-yl)-sulfonyl)benzyl)piperazin-1-yl)-2-(2,6-dioxopiperidin-3-yl)-6-fluoro-isoindoline-1,3-dione] | 1000 to 10000 nM | – | no curve
Cn1nc(N2CCC(=O)NC2=O)c2ccc(C3CCN(CC4CCN(c5cccc(S(=O)(=O)N6CCC(Nc7ncc(C(F)(F)F)c(-c8cnn(CC(F)(F)F)c8)n7)CC6)c5)CC4)CC3)cc21 [Example 50, 1-(1-methyl-6-(1-((1-(3-((4-((4-(1-(2,2,2-trifluoroethyl)-1H-pyrazol-4-yl)-5-(trifluoromethyl)pyrimidin-2-yl)amino)-piperidin-1-yl)sulfonyl)phenyl)-piperidin-4-yl)methyl)piperidin-4-yl)-1H-indazol-3-yl)dihydropyrimidine-2,4(1H,3H)-dione] | < 100 nM | < 100 nM | –
Cn1nc(N2CCC(=O)NC2=O)c2ccc(C3CCN(Cc4cccc(S(=O)(=O)N5CC[C@H](Nc6ncc(C(F)(F)F)c(-c7cnn(CC(F)(F)F)c7)n6)[C@H](F)C5)c4)CC3)cc21 (racemic) [Example 6, Rac-1-(6-(1-(3-(((3R,4S)-3-fluoro-4-((4-(1-(2,2,2-trifluoroethyl)-1H-pyrazol-4-yl)-5-(trifluoromethyl)-pyrimidin-2-yl)amino)piperidin-1-yl)sulfonyl)-benzyl)piperidin-4-yl)-1-methyl-1H-indazol-3-yl)dihydro-pyrimidine-2,4(1H,3H)-dione] | < 100 nM | < 100 nM | –
